≈ marks a conversion by molar mass, not a printed value.
What was measured:
Assay type in all cases: functional
Staphylococcus aureus [1] = experiment: Antibacterial activity against methicillin resistant Staphylococcus aureus […] after 18 hrs by serial agar dilution method
[2] = Antibacterial activity against Photobacterium damselae subsp. piscicida after 18 hrs by serial agar dilution method
Staphylococcus aureus [3] = experiment: Antibacterial activity against Staphylococcus aureus after 18 hrs by serial agar dilution method
Micrococcus luteus = experiment: Antibacterial activity against Micrococcus luteus after 18 hrs by serial agar dilution method
Bacillus subtilis = experiment: Antibacterial activity against Bacillus subtilis after 18 hrs by serial agar dilution method
Staphylococcus aureus [4] = experiment: Antibacterial activity against […] Staphylococcus aureus ATCC 25923 after 18 hrs by serial agar dilution method; settings: ATCC 25923, 18 h

Structure (SMILES) | MIC (Staphylococcus aureus [1]) | MIC [2] [µg/mL] | MIC (Staphylococcus aureus [4]) [µg/mL] | also measured
C[C@@H]1[C@@H]2OC3=C(C(=O)OC3CSCCO)C(=O)[C@@]1(C)[C@@H]1CCCC[C@@]1(O)[C@@H]2O (some centres undefined) | 25 µg/mL | 6.25 (≈ 15.2 µM) | – | –
C=C1OC(=O)C2=C1O[C@@H]1[C@@H](O)[C@]3(O)CCCC[C@H]3[C@](C)(C2=O)[C@@H]1C | 18.7 to 37.4 µM | 1.56 to 18.7 (≈ 4.67 to 55.9 µM) | – | MIC (Staphylococcus aureus [3]): 18.7 to 37.4 µM (≈ 6.25 to 12.5 µg/mL); MIC (Micrococcus luteus): 18.7 to 37.4 µM (≈ 6.25 to 12.5 µg/mL); MIC (Bacillus subtilis): 18.7 to 37.4 µM (≈ 6.25 to 12.5 µg/mL)
C=C1OC(=O)C2=C1O[C@H]1C[C@](C)(CC(O)C1OC(=O)c1ccc3ccccc3c1)C2=O (some centres undefined) | – | – | 8 (≈ 19 µM) | –
C=C1OC(=O)C2=C1O[C@@H]1C=CC[C@@](C)(C1)C2=O | – | – | 4 (≈ 17.2 µM) | –
CC(=O)NCCCSCC1OC(=O)C2=C1O[C@@H]1[C@@H](O)[C@]3(O)CCCC[C@H]3[C@](C)(C2=O)[C@@H]1C (some centres undefined) | 12.5 µg/mL | 6.25 (≈ 13.4 µM) | – | –
C[C@@H]1[C@@H]2OC3=C(C(=O)OC3(Br)CBr)C(=O)[C@@]1(C)[C@@H]1CCCC[C@@]1(O)[C@@H]2O (some centres undefined) | > 100 µg/mL | 12.5 (≈ 25.3 µM) | – | –
C=C1OC(=O)C2=C1O[C@H]1C[C@](C)(CC(O)C1O)C2=O (some centres undefined) | – | – | > 128 | –
C=C1OC(=O)C2=C1O[C@@H]1[C@@H](OC(=O)c3ccc4ccccc4c3)[C@]3(O)CCCC[C@H]3[C@](C)(C2=O)[C@@H]1C | 1.61 µM | > 100 | – | –
C=C1OC(=O)C2=C1O[C@H]1C[C@](C)(CC(OC(=O)c3ccc4ccccc4c3)C1O)C2=O (some centres undefined) | – | – | 128 (≈ 304 µM) | –
CC1OC(=O)C2=C1O[C@@H]1[C@@H](O)[C@]3(O)CCCC[C@H]3[C@](C)(C2=O)[C@@H]1C (some centres undefined) | > 100 µg/mL | 50 (≈ 149 µM) | – | –

Reference: ChEMBL document CHEMBL3864124, “Tetrodecamycin: An unusual and interesting tetronate antibiotic” (2016)
